The text below walks through data of patent US20260097022A1, “COMPOUNDS AND USES THEREOF” (Integrated Biosciences, Inc., priority 2023, published 2026).

Data set [1] concerns etoposide-treated IMR-90 cells. The experiment in a line: Etoposide-induced senescence model, resazurin cell viability (screen and dose-response). It counts as cell-based, human. To be noted: for effect on Sncs and control cells versus DMSO: concentrations between 1.5 to 3 μM, 3 days. Put shortly: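 IMR-90 fibroblasts made senescent with 50 μM etoposide for 2 days, then 4 days recovery before plating. Compounds at 10 μM or 1 μM final (screen) or three-fold dilutions (1% DMSO) for 3 days, then 0.15 mM resazurin 1 day, fluorescence 550/590 nm. Viability expressed as fraction of untreated controls; biological duplicates.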
In general terms: The colour change of resazurin is a common sign of viable cells or microbes.

The next data set relates to human red blood cells. The experiment in a line: Hemolysis assay. To be noted: up to a final concentration of 100 μM; 1 h at 37° C. Format: cell-based. Here is the method: Hemolysis assay. Whole human blood containing EDTA (Innovative Resarch IWB1K2E) was centrifuged at 120×g at 4° C., for 5 min and resuspended in Dulbecco's PBS (DPBS: VWR 02-0119-0500). These washing steps were repeated until the supernatant was clear. Red blood cells were then resuspended in DPBS to 5×10^8 cells/mL, and 100 μL of cells was plated into each well of a 96-well clear round-bottom plate. Compounds were added to the indicated concentrations, and DMSO was used as a vehicle. Samples were incubated for 1 h at 37° C., without shaking, after which plates were centrifuged at 1500×g at room temperature for 5 min to pellet cells. 60 μL of the supernatant from each sample was then transferred to a 96-well clear flat-bottom plate, and the absorbance was read at 405 nm using a SpectraMax M3 plate reader to quantify the amount of soluble hemoglobin. Fractional hemolysis was determined by linearly interpolating absorbance values with respect to a positive control (saturation with 10% Triton X-100) and a negative control (1% DMSO vehicle). Results are depicted in FIG. 14.

Data set [2] has as its system Salmonella typhimurium TA100. As to the kind of experiment: Genotoxicity assay (Ames 384-ISO test). Format: cell-based. The following applies: 100 μM. As for the experimental part: Genotoxicity assay. An Ames 384-ISO test (6041-1S) from Environmental Bio-Detection Products, Inc, was used following the manufacturer's instructions. Briefly. Salmonella typhimurium TA100 was grown overnight (16-18 h) at 37° C., with shaking at 300 rpm and treated with the provided exposure media and compound samples at the final concentrations indicated. Treatment with the provided 4-nitroquinoline 1-oxide (4NQO), a mutagen, was used as a positive control. Cells were then added to the provided reversion solution, and each sample was split into 48 wells of 384-well plates. Plates were incubated at 37° C., for 2 days, after which the number of revertant (yellow-colored) wells corresponding to each sample was counted. […] An overnight bacterial culture was diluted 1:10.000 in LB medium (Becton Dickinson 244620) and plated using 99 μL working volumes into the wells of a clear flat-bottom 96-well plate. One μL of two-fold dilutions of each test compound in DMSO, starting from a final concentration of 500 μM, was added across wells, and plates were sealed and incubated overnight at 37° C., to determine bacterial growth.

[3] abbreviates: ratio of IC50 values for vehicle- and etoposide-treated IMR-90 cells, 3 days treatment.

The structures appear in SMILES notation.

`COc1ccc(C(=O)Nc2ccc3nc(SCC(=O)Nc4ccccc4F)sc3c2)cc1OC` [compound 6]: in data set [1], the “effect on Sncs and control cells versus DMSO” value is “selective elimination of Sncs and no difference in the viabilities of control cells”. Besides, the hemolysis entry with human red blood cells was “did not induce significant hemolysis”. Further, the “reversion of bacterial cultures (mutagenic potential)” value (from here on “reversion of bacterial cultures”) in data set [2] is listed as “did not induce significant reversion”.

Take `Cc1ccccc1C(=O)Nc1ccc2nc(SCC(=O)Nc3ccccc3)sc2c1` [compound 19]: the “effect on Sncs and control cells versus DMSO” value in data set [1] is “selective elimination of Sncs and no difference in the viabilities of control cells”. Besides, the “Therapeutic Index (TI)” value in data set [1] (etoposide-induced senescence model, ratio of IC50 values between etoposide- and DMSO-treated IMR-90 fibroblasts) was “+++ (compounds with a TI of >5 were labeled as +++)”; in data set [1] (setting [3]), 4.7. In the data set with human red blood cells, the hemolysis result was “did not induce significant hemolysis”. Besides, the “reversion of bacterial cultures” value in data set [2] is recorded as “did not induce significant reversion”.

As for `O=C(Nc1ccc(S(=O)(=O)Nc2ncccn2)cc1)c1ccc(-c2ccccc2)cc1` [BRD-K20733377], the “effect on Sncs and control cells versus DMSO” value in data set [1] is “selective elimination of Sncs and no difference in the viabilities of control cells”. The “Therapeutic Index (TI)” value in data set [1] (setting [3]) stood at 8.3. Further, the hemolysis result with human red blood cells is “did not induce significant hemolysis”. Also, in data set [2], the “reversion of bacterial cultures” value is listed as “did not induce significant reversion”.
